From the NIST ThermoML archive (doi:10.1021/je8001305)

Experiment: xn = mol fraction of the nth substance listed
Settings: Liquid, Vibrating tube method

CC(C)O [propan-2-ol] + O
Settings	mass density [kg/m3]
325.1 K, 4598.7 kPa, x1 = 0.2483	877.08
325.1 K, 5089.3 kPa, x1 = 0.2483	877.36
325.1 K, 5564.2 kPa, x1 = 0.2483	877.68
325.1 K, 5954.2 kPa, x1 = 0.2483	877.93
325.1 K, 6394.3 kPa, x1 = 0.2483	878.21
325.1 K, 6808.5 kPa, x1 = 0.2483	878.48
325.1 K, 7288 kPa, x1 = 0.2483	878.8
325.1 K, 7782.7 kPa, x1 = 0.2483	879.08
325.1 K, 8079.1 kPa, x1 = 0.2483	879.34
325.1 K, 8438.9 kPa, x1 = 0.2483	879.63
325.1 K, 8828.5 kPa, x1 = 0.2483	879.87
325.1 K, 9358.9 kPa, x1 = 0.2483	880.18
325.13 K, 29.2 kPa, x1 = 0.7258	782.68
325.13 K, 83 kPa, x1 = 0.7258	782.69
325.13 K, 268.1 kPa, x1 = 0.7258	782.93
325.13 K, 528.3 kPa, x1 = 0.7258	783.18
325.13 K, 873.7 kPa, x1 = 0.7258	783.5
325.13 K, 1298.6 kPa, x1 = 0.7258	783.92
325.13 K, 1709.2 kPa, x1 = 0.7258	784.33
325.13 K, 2200.7 kPa, x1 = 0.7258	784.79
325.13 K, 2652.1 kPa, x1 = 0.7258	785.22
325.13 K, 3101.7 kPa, x1 = 0.7258	785.67
325.13 K, 3550.6 kPa, x1 = 0.7258	786.11
325.13 K, 4068.3 kPa, x1 = 0.7258	786.61
325.13 K, 4579.4 kPa, x1 = 0.7258	787.07
325.13 K, 5021.7 kPa, x1 = 0.7258	787.49
325.13 K, 5496.1 kPa, x1 = 0.7258	787.93
325.13 K, 5972.3 kPa, x1 = 0.7258	788.38
325.13 K, 6450.8 kPa, x1 = 0.7258	788.82
325.13 K, 6903 kPa, x1 = 0.7258	789.24
325.13 K, 7392 kPa, x1 = 0.7258	789.7
325.13 K, 7861.1 kPa, x1 = 0.7258	790.11
325.13 K, 8322.8 kPa, x1 = 0.7258	790.52
325.13 K, 8813.9 kPa, x1 = 0.7258	790.98
325.13 K, 9287.4 kPa, x1 = 0.7258	791.41
325.13 K, 9829.7 kPa, x1 = 0.7258	791.93
350.15 K, 88 kPa, x1 = 0.4939	789.82
350.15 K, 161.7 kPa, x1 = 0.4939	789.8
350.15 K, 387.8 kPa, x1 = 0.4939	790.1
350.15 K, 695.2 kPa, x1 = 0.4939	790.45
350.15 K, 1020.8 kPa, x1 = 0.4939	790.78
350.15 K, 1400.1 kPa, x1 = 0.4939	791.25
350.15 K, 1795.8 kPa, x1 = 0.4939	791.61
350.15 K, 2147.1 kPa, x1 = 0.4939	791.96
350.15 K, 2497.9 kPa, x1 = 0.4939	792.31
350.15 K, 2892.7 kPa, x1 = 0.4939	792.74
350.15 K, 3277.9 kPa, x1 = 0.4939	793.12
350.15 K, 3611.5 kPa, x1 = 0.4939	793.5
350.15 K, 4087.3 kPa, x1 = 0.4939	794.01
350.15 K, 4606.7 kPa, x1 = 0.4939	794.49
350.15 K, 4955.2 kPa, x1 = 0.4939	794.83
350.15 K, 5376 kPa, x1 = 0.4939	795.26
350.15 K, 5837.6 kPa, x1 = 0.4939	795.69
350.15 K, 6296.4 kPa, x1 = 0.4939	796.18
350.15 K, 6886.6 kPa, x1 = 0.4939	796.77
350.15 K, 7400.8 kPa, x1 = 0.4939	797.28
350.15 K, 7935.6 kPa, x1 = 0.4939	797.73
350.15 K, 8400.3 kPa, x1 = 0.4939	798.24
350.15 K, 9000.6 kPa, x1 = 0.4939	798.68
350.15 K, 9521.2 kPa, x1 = 0.4939	799.18
350.18 K, 84.4 kPa, x1 = 0.2483	850.19
350.18 K, 220 kPa, x1 = 0.2483	850.33
350.18 K, 511 kPa, x1 = 0.2483	850.54
350.18 K, 938.8 kPa, x1 = 0.2483	850.91
350.18 K, 1369.7 kPa, x1 = 0.2483	851.29
350.18 K, 2066.9 kPa, x1 = 0.2483	851.75
350.18 K, 2381 kPa, x1 = 0.2483	852.09
350.18 K, 2718.1 kPa, x1 = 0.2483	852.39
350.18 K, 3107.7 kPa, x1 = 0.2483	852.73
350.18 K, 3464.8 kPa, x1 = 0.2483	853.04
350.18 K, 3957.6 kPa, x1 = 0.2483	853.37
350.18 K, 4346 kPa, x1 = 0.2483	853.71
350.18 K, 4781.1 kPa, x1 = 0.2483	854.06
350.18 K, 5267.8 kPa, x1 = 0.2483	854.49
350.18 K, 5743.8 kPa, x1 = 0.2483	854.83
350.18 K, 6196.4 kPa, x1 = 0.2483	855.2
350.18 K, 6734.2 kPa, x1 = 0.2483	855.63
350.18 K, 7374.9 kPa, x1 = 0.2483	856.07
350.18 K, 7999 kPa, x1 = 0.2483	856.54
350.18 K, 8630.3 kPa, x1 = 0.2483	857.02
350.18 K, 9298.3 kPa, x1 = 0.2483	857.54
351.14 K, 93.2 kPa, x1 = 0.7258	756.9
351.14 K, 241.5 kPa, x1 = 0.7258	757.15
351.14 K, 444.5 kPa, x1 = 0.7258	757.34
351.14 K, 822.4 kPa, x1 = 0.7258	757.8
351.14 K, 1271.6 kPa, x1 = 0.7258	758.33
351.14 K, 1673.9 kPa, x1 = 0.7258	758.75
351.14 K, 2070.5 kPa, x1 = 0.7258	759.26
351.14 K, 2461.1 kPa, x1 = 0.7258	759.66
351.14 K, 2863.4 kPa, x1 = 0.7258	760.12
351.14 K, 3280.9 kPa, x1 = 0.7258	760.61
351.14 K, 4252.5 kPa, x1 = 0.7258	761.65
351.14 K, 4626.4 kPa, x1 = 0.7258	762.11
351.14 K, 5075.9 kPa, x1 = 0.7258	762.61
351.14 K, 5558.5 kPa, x1 = 0.7258	763.09
351.14 K, 5976.2 kPa, x1 = 0.7258	763.59
351.14 K, 6439.8 kPa, x1 = 0.7258	764.08
351.14 K, 6882.2 kPa, x1 = 0.7258	764.57
351.14 K, 7348.6 kPa, x1 = 0.7258	765.1
351.14 K, 7809.3 kPa, x1 = 0.7258	765.6
351.14 K, 8254 kPa, x1 = 0.7258	766.09
351.14 K, 8720.2 kPa, x1 = 0.7258	766.63
351.14 K, 9221.3 kPa, x1 = 0.7258	767.15
351.14 K, 9714.8 kPa, x1 = 0.7258	767.73
351.14 K, 10240 kPa, x1 = 0.7258	768.31
